Data taken from US20080227780A1, “SOLUBLE EPOXIDE HYDROLASE INHIBITORS” (Arete Therapeutics, Inc., priority 2007, published 2008).
Blank lines part the entries; values can stand above or below the molecule they belong to.

Test system: soluble epoxide hydrolase (sEH)
Experiment: Fluorescent assay for soluble epoxide hydrolase (CMNPC substrate), percent inhibition at the recited concentration
Type: biochemical
How it was run: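 Purified recombinant baculovirus-expressed sEH in 25 mM Bis/Tris HCl pH 7.0 with 0.1 mg/mL BSA; inhibitor serially diluted and preincubated with enzyme 5 min at 30 °C. Reaction started with 5 μM (final) substrate; fluorescence (ex 330/em 465 nm) read every 30 s for 10 min, and velocities give % inhibition.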

Structure (SMILES): CNS(=O)(=O)c1cccc(C(=O)N2CCC(NC(=O)Nc3ccc(C(F)(F)F)cc3)CC2)c1 [Compound 4-9, N-methyl-3-(4-(3-(4-(trifluoromethyl)phenyl)ureido)piperidine-1-carbonyl)benzene-sulfonamide]
% inh. (Inhibition Conc. 50 nM): 99%

Structure (SMILES): NC(=O)c1cccnc1N1CCC(NC(=O)Nc2ccc(C(F)(F)F)cc2)CC1 [Compound 2-6, 2-(4-(3-(4-(trifluoro-methyl)phenyl)ureido)-piperidin-1-yl)nicotinamide]
% inh. (Inhibition Conc. 50 nM): 60%

Structure (SMILES): O=C(NC1CCN(c2ccncc2)CC1)NC12CC3CC(CC(C3)C1)C2 [Compound 2-4, 1-(1-adamantyl)-3-(1-(pyridin-4-yl)piperidin-4-yl)urea]
% inh. (Inhibition Conc. 5000 nM): 92%

Structure (SMILES): CNS(=O)(=O)c1cccc(C(=O)N2CCC(NC(=O)Nc3ccc(OC(F)(F)F)cc3)CC2)c1 [Compound 4-10, N-methyl-3-(4-(3-(4-(trifluoromethoxy)-phenyl)ureido)-piperidine-1-carbonyl)benzene-sulfonamide]
% inh. (Inhibition Conc. 50 nM): 93%

Structure (SMILES): CNS(=O)(=O)c1ccc(C(=O)N2CCC(NC(=O)Nc3ccc(F)cc3)CC2)cc1 [Compound 4-11, 4-(4-(3-(4-fluorophenyl)ureido)piperidine-1-carbonyl)-N-methylbenzene-sulfonamide]
% inh. (Inhibition Conc. 500 nM): 94%

Structure (SMILES): O=C(Nc1ccc(C(F)(F)F)cc1)NC1CCN(c2ncccc2C(=O)O)CC1 [Compound 2-7]
% inh. (Inhibition Conc. 500 nM): 64%

Structure (SMILES): CC(=O)N1CCC(NC(=O)Nc2ccc(S(=O)(=O)N3CCOCC3)cc2)CC1 [Compound 5-2, 1-(1-acetylpiperidin-4-yl)-3-(4-(morpholinosulfonyl)phenyl)urea]
% inh. (Inhibition Conc. 500 nM): 90%

Structure (SMILES): COc1ccc(CNC(=O)NC2CCN(C(C)=O)CC2)cc1OC [Compound 1-5, 1-(1-acetylpiperidin-4-yl)-3-(3,4-dimethoxy-benzyl)urea]
% inh. (Inhibition Conc. 2000 nM): 66%

Structure (SMILES): CC(=O)N1CCC(NC(=O)NCCC(c2ccccc2)c2ccccc2)CC1 [Compound 1-7, 1-(1-acetypiperidin-4-yl)-3-(3,3-diphenylpropyl)urea]
% inh. (Inhibition Conc. 200 nM): 100%

Structure (SMILES): CNS(=O)(=O)c1cccc(C(=O)N2CCC(NC(=O)NC34CC5CC(CC(C5)C3)C4)CC2)c1 [Compound 4-5, 3-(4-(3-(1-adamantyl)ureido)-piperidine-1-carbonyl)-N-methylbenzene-sulfonamide]
% inh. (Inhibition Conc. 50 nM): 99%

Structure (SMILES): CC(=O)N1CCC(NC(=O)NCC2CCOCC2)CC1 [Compound 1-4, 1-(1-acetylpiperidin-4-yl)-3-((tetrahydro-2H-pyran-4-yl)methyl)urea]
% inh. (Inhibition Conc. 2000 nM): 80%

Structure (SMILES): NS(=O)(=O)c1ccc(C(=O)N2CCC(NC(=O)Nc3ccc(OC(F)(F)F)cc3)CC2)cc1 [Compound 4-2, 4-(4-(3-(4-(trifluoromethoxy)-phenyl)ureido)-piperidine-1-carbonyl)benzenesulfonamide]
% inh. (Inhibition Conc. 50 nM): 98%

Structure (SMILES): CC(=O)N1CCC(NC(=O)NC23CC4CC(CC(C4)C2O)C3)CC1 (stereo not drawn) [Compound 3-6, 1-(1-acetylpiperidin-4-yl)-3-(2-hydroxyadamant-1-yl)urea]
% inh. (Inhibition Conc. 50000 nM): 94%

Now from value to molecule:

% inh. (Inhibition Conc. 200 nM): 94%
Structure (SMILES): O=C(NC1CCN(C(=O)CCCO)CC1)NC12CC3CC(CC(C3)C1)C2 [Compound 7-73, 1-adamantyl-3-(1-(4-hydroxybutanoyl)piperidin-4-yl)urea]

% inh. (Inhibition Conc. 500 nM): 73%
Structure (SMILES): CNS(=O)(=O)c1cccc(C(=O)N2CCC(NC(=O)Cc3ccc(Cl)cc3)CC2)c1 [Compound 7-85, 2-(4-chlorophenyl)-N-(1-(3-(N-methyl-sulfamoyl)benzoyl)-piperidin-4-yl)acetamide]

% inh. (Inhibition Conc. 2000 nM): 96%
Structure (SMILES): COC(=O)c1ccc(NC(=O)NC2CCN(C(=O)OC(C)(C)C)CC2)cc1 [Compound 7-67, tert-butyl 4-(3-(4-(methoxycarbonyl)phenyl)ureido)piperidine-1-carboxylate]

% inh. (Inhibition Conc. 2000 nM): 82%
Structure (SMILES): CC(=O)N1CCC(NC(=O)NC2CCC(F)(F)CC2)CC1 [Compound 7-62, 1-(1-acetylpiperidin-4-yl)-3-(4,4-difluorocyclohexyl)urea]

% inh. (Inhibition Conc. 200 nM): 84%
Structure (SMILES): CC(=O)N1CCC(NC(=O)NC23CCC(C)(CC2)CC3)CC1 [Compound 7-58, 1-(1-acetylpiperidin-4-yl)-3-(4-methylbicyclo[2.2.2]octan-1-yl)urea]

% inh. (Inhibition Conc. 200 nM): 99%
Structure (SMILES): CC(C)(C)S(=O)(=O)N1CCC(NC(=O)Nc2ccc(OC(F)(F)F)cc2)CC1 [Compound 7-77, 1-(1-(tert-butylsulfonyl)piperidin-4-yl)-3-(4-(trifluoromethoxy)phenyl)urea]

% inh. (Inhibition Conc. 5000 nM): 74%
Structure (SMILES): CC(=O)N1CCC(NC(=O)NC2CCCC2)CC1 [Compound 7-18, 1-(1-acetylpiperidin-4-yl)-3-cyclopentylurea]

% inh. (Inhibition Conc. 50 nM): 97%
Structure (SMILES): O=C(NC1CCN(S(=O)(=O)c2ccccc2)CC1)NC12CC3CC(CC(C3)C1)C2 [Compound 7-26, 1-adamantyl-3-(1-(phenylsulfonyl)piperidin-4-yl)urea]

% inh. (Inhibition Conc. 50 nM): 98%
Structure (SMILES): Cc1cccc(Cl)c1S(=O)(=O)N1CCC(NC(=O)NC23CC4CC(CC(C4)C2)C3)CC1 [Compound 7-35, 1-(1-(2-chloro-6-methylphenylsulfonyl)piperidin-4-yl)-3-adamantylurea]

% inh. (Inhibition Conc. 500 nM): 95%
Structure (SMILES): CC(=O)N1CCC(NC(=O)Nc2ccc(Oc3ccccc3)cc2)CC1 [Compound 7-12, 1-(1-acetylpiperidin-4-yl)-3-(4-phenoxyphenyl)urea]

% inh. (Inhibition Conc. 50 nM): 92%
Structure (SMILES): O=C(NC1CCN(S(=O)(=O)c2ccc(C(=O)O)cc2)CC1)NC12CC3CC(CC(C3)C1)C2 [Compound 7-45, 4-(4-(3-adamantylureido)piperidin-1-ylsulfonyl)benzoic acid]

% inh. (Inhibition Conc. 200 nM): 92%
Structure (SMILES): CC(=O)N1CCC(NC(=O)NC2CCCCCCC2)CC1 [Compound 7-84, 1-(1-acetylpiperidin-4-yl)-3-cyclooctylurea]

% inh. (Inhibition Conc. 50 nM): 91%
Structure (SMILES): CC(C)(C)C(=O)N1CCC(NC(=O)NC23CC4CC(CC(C4)C2)C3)CC1 [Compound 7-13, 1-(1-adamantyl)-3-(1-pivaloylpiperidin-4-yl)urea]

% inh. (Inhibition Conc. 50 nM): 100%
Structure (SMILES): O=C(NC1CCN(S(=O)(=O)c2cccc(C(F)(F)F)c2)CC1)NC12CC3CC(CC(C3)C1)C2 [Compound 7-38, 1-adamantyl-3-(1-(3-(trifluoromethyl)phenylsulfonyl)piperidin-4-yl)urea]

% inh. (Inhibition Conc. 50 nM): 88%
Structure (SMILES): CC(=O)N1CCC(NC(=O)NC2CC3CCC2C3)CC1 (stereo not drawn) [Compound 7-7, 1-(1-acetylpiperidin-4-yl)-3-(bicyclo[2.2.1]heptan-2-yl)urea]

% inh. (Inhibition Conc. 500 nM): 86%
Structure (SMILES): CC(=O)N1CCC(NC(=O)NC2CCCCC2)CC1 [Compound 7-43, 1-(1-acetylpiperidin-4-yl)-3-cyclohexylurea]

% inh. (Inhibition Conc. 500 nM): 83%
Structure (SMILES): O=C(NC1CCCCC1)NC1CCN(C(=O)CCCN2CCOCC2)CC1 [Compound 7-61, 1-cyclohexyl-3-(1-(4-morpholinobutanoyl)piperidin-4-yl)urea]

% inh. (Inhibition Conc. 50 nM): 93%
Structure (SMILES): O=C(NC1CCN(S(=O)(=O)Cc2ccccc2)CC1)NC12CC3CC(CC(C3)C1)C2 [Compound 7-29, 1-(1-(benzylsulfonyl)piperidin-4-yl)-3-adamantylurea]

% inh. (Inhibition Conc. 50 nM): 99%
Structure (SMILES): O=C(NC1CCN(S(=O)(=O)c2ccc3ccccc3c2)CC1)NC12CC3CC(CC(C3)C1)C2 [Compound 7-25, 1-adamantyl-3-(1-(naphthalen-2-ylsulfonyl)piperidin-4-yl)urea]

% inh. (Inhibition Conc. 2000 nM): 33%
Structure (SMILES): CC(=O)N1CCC(NC(=O)Nc2ccc(S(C)(=O)=O)cc2)CC1 [Compound 7-60, 1-(1-acetylpiperidin-4-yl)-3-(4-(methylsulfonyl)phenyl)urea]
